The kinase profiling compilation of Christmann-Franck et al. (2016)

Columns and labels:
[1] = biological target: CSK (human) (UniProt P41240); experiment: radiometric filter-binding kinase assay
[2] = biological target: PRKACA (human) (UniProt P17612); experiment: radiometric filter-binding kinase assay
[3] = biological target: MAPK8 (human) (UniProt P45983); experiment: radiometric filter-binding kinase assay
[4] = biological target: MARK2 (human) (UniProt Q7KZI7); experiment: radiometric filter-binding kinase assay
[5] = biological target: STK11 CAB39 STRADA (human) (UniProt Q9Y376+Q7RTN6+Q15831); experiment: radiometric filter-binding kinase assay
[6] = biological target: PAK7 (human) (UniProt Q9P286); experiment: radiometric filter-binding kinase assay
[7] = biological target: MAPK11 (human) (UniProt Q15759); experiment: radiometric filter-binding kinase assay
[8] = biological target: MAPK9 (human) (UniProt P45984); experiment: radiometric filter-binding kinase assay
[9] = biological target: MST4 (human) (UniProt Q9P289); experiment: radiometric filter-binding kinase assay
[10] = biological target: MAPKAPK5 (human) (UniProt Q8IW41); experiment: radiometric filter-binding kinase assay
[11] = biological target: MAPK10 (human) (UniProt P53779); experiment: radiometric filter-binding kinase assay
[12] = biological target: MAPK1 (human) (UniProt P28482); experiment: radiometric filter-binding kinase assay
[13] = biological target: BRSK1 (human) (UniProt Q8TDC3); experiment: radiometric filter-binding kinase assay
[14] = biological target: IRAK4 (human) (UniProt Q9NWZ3); experiment: radiometric filter-binding kinase assay
[15] = biological target: DGKB (human) (UniProt Q9Y6T7); experiment: ADP detection assay-Luminescence
[16] = biological target: PIK3C3 (human) (UniProt Q8NEB9); experiment: ADP detection assay-Luminescence
[17] = biological target: SPHK2 (human) (UniProt Q9NRA0); experiment: ADP detection assay-Luminescence
[18] = biological target: DGKG (human) (UniProt P49619); experiment: ADP detection assay-Luminescence
[19] = biological target: PI4KA (human) (UniProt P42356); experiment: ADP detection assay-Luminescence
[20] = biological target: PIP4K2A (human) (UniProt P48426); experiment: ADP detection assay-Luminescence
[21] = biological target: PI4KB (human) (UniProt Q9UBF8); experiment: ADP detection assay-Luminescence
[22] = biological target: CHKA (human) (UniProt P35790); experiment: ADP detection assay-Luminescence
[23] = biological target: PIK3CA PIK3R1 (human) (UniProt P27986+P42336); experiment: ADP detection assay-Luminescence
[24] = biological target: PIK3CD PIK3R1 (human) (UniProt O00329+P27986); experiment: ADP detection assay-Luminescence
[25] = biological target: SPHK1 (human) (UniProt Q9NYA1); experiment: ADP detection assay-Luminescence
[26] = biological target: PIK3CB PIK3R1 (human) (UniProt P27986+P42338); experiment: ADP detection assay-Luminescence
[27] = biological target: DGKZ (human) (UniProt Q13574); experiment: ADP detection assay-Luminescence
[28] = biological target: PIK3CG (human) (UniProt P48736); experiment: ADP detection assay-Luminescence
[29] = biological target: CHKB (human) (UniProt Q9Y259); experiment: ADP detection assay-Luminescence

Sequence of IRAK4 (human) (Q9NWZ3 whole entry, looked up): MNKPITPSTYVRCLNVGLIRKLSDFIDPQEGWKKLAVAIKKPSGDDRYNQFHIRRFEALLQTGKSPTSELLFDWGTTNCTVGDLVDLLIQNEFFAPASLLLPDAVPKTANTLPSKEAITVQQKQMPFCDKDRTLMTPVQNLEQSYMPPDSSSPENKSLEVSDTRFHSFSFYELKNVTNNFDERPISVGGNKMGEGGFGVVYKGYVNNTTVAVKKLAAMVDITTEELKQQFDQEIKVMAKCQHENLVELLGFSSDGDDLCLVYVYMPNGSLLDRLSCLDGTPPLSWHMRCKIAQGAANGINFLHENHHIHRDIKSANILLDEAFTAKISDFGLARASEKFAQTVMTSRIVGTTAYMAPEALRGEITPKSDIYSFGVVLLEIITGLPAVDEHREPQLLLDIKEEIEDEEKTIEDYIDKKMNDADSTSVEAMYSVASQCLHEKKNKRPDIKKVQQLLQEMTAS
Sequence of MST4 (human) (Q9P289 whole entry, looked up): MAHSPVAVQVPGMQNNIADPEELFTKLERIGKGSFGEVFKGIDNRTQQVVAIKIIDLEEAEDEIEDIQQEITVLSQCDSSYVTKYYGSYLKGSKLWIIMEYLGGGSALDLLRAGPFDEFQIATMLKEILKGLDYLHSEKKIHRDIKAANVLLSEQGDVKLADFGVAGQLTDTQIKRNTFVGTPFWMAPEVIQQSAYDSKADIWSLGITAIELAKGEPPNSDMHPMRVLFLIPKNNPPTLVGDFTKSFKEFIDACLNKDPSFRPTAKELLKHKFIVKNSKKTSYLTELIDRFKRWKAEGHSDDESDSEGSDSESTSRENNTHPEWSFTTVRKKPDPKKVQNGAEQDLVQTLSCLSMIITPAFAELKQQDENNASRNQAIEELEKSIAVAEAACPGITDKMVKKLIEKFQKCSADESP
Sequence of PI4KA (human) (P42356 whole entry, looked up): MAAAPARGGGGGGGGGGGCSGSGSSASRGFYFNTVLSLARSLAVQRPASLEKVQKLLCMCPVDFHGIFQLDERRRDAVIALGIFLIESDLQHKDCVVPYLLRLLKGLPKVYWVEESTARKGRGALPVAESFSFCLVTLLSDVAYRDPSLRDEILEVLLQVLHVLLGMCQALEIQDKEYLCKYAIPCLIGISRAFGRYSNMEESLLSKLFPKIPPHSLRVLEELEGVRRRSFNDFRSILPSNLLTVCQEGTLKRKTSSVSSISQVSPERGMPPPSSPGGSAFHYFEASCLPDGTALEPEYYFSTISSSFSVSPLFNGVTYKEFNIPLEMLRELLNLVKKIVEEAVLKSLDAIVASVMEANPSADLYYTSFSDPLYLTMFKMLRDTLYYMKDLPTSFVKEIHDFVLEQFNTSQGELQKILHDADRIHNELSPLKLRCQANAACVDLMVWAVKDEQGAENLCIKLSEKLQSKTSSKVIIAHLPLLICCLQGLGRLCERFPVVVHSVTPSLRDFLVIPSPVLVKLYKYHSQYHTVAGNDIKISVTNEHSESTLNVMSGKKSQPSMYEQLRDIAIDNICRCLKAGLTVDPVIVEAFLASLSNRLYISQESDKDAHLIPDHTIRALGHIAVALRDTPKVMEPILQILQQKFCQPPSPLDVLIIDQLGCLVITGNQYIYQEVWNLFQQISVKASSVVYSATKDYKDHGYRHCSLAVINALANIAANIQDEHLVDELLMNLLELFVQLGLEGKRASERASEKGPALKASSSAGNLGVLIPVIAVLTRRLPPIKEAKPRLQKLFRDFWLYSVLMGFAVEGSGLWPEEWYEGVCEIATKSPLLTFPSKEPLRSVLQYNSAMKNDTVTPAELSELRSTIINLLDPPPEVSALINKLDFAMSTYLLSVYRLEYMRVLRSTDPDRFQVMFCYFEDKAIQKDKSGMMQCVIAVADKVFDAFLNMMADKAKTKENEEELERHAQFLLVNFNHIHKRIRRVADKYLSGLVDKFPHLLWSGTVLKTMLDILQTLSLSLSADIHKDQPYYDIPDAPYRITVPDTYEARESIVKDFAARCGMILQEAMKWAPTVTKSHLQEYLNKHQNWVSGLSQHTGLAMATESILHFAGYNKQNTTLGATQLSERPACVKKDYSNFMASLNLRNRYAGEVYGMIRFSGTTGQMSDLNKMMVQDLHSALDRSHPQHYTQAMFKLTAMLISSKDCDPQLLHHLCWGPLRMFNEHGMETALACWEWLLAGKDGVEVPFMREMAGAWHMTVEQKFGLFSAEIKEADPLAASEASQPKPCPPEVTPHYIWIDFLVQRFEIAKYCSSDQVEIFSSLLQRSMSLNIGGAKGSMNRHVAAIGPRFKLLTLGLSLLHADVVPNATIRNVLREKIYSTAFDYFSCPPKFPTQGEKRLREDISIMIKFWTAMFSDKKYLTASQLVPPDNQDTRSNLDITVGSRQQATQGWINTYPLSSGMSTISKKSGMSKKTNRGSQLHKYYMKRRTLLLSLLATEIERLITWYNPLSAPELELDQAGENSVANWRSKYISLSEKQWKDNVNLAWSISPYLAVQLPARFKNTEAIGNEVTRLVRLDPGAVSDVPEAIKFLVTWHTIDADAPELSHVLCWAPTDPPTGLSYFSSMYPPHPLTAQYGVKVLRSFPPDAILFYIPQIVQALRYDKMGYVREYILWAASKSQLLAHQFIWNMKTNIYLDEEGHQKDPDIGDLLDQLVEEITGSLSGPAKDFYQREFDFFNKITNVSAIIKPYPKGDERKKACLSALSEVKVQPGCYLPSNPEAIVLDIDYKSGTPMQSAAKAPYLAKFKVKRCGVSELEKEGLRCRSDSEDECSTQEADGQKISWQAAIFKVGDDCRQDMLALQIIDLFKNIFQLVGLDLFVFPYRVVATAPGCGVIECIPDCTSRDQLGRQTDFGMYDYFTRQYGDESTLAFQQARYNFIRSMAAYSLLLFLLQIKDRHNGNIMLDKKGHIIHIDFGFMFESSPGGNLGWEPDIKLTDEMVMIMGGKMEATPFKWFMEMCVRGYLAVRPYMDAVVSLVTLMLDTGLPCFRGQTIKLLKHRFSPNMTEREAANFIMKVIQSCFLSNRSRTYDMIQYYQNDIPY
Sequence of PAK7 (human) (Q9P286 whole entry, looked up): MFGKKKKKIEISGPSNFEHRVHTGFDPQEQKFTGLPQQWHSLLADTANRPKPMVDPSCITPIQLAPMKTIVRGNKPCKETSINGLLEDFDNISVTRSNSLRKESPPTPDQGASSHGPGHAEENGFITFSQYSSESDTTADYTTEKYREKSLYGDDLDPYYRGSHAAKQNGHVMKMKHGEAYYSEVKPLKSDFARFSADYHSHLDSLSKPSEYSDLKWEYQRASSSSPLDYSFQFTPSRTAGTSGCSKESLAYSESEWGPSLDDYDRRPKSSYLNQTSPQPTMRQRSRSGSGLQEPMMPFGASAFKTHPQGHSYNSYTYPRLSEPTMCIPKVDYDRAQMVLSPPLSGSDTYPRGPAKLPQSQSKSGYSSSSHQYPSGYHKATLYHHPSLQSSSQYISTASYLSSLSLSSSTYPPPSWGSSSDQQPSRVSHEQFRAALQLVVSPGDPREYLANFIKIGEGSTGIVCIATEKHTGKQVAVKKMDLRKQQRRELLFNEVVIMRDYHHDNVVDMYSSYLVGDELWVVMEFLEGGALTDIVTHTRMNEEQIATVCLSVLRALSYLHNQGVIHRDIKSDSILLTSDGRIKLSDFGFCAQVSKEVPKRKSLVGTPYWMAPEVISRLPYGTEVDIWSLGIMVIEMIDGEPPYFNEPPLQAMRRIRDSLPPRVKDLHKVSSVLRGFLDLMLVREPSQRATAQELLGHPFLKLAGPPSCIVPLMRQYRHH
Sequence of PIP4K2A (human) (P48426 whole entry, looked up): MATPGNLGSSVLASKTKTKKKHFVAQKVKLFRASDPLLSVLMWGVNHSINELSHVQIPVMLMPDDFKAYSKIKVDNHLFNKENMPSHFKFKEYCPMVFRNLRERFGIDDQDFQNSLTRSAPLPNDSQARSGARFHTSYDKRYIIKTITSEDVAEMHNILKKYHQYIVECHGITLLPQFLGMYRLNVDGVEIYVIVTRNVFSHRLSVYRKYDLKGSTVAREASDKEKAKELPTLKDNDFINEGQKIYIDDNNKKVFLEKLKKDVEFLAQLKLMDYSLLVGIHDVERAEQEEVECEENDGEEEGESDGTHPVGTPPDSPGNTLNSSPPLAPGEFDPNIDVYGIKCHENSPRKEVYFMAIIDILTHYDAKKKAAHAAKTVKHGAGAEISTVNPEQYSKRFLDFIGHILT
Sequence of SPHK2 (human) (Q9NRA0 whole entry, looked up): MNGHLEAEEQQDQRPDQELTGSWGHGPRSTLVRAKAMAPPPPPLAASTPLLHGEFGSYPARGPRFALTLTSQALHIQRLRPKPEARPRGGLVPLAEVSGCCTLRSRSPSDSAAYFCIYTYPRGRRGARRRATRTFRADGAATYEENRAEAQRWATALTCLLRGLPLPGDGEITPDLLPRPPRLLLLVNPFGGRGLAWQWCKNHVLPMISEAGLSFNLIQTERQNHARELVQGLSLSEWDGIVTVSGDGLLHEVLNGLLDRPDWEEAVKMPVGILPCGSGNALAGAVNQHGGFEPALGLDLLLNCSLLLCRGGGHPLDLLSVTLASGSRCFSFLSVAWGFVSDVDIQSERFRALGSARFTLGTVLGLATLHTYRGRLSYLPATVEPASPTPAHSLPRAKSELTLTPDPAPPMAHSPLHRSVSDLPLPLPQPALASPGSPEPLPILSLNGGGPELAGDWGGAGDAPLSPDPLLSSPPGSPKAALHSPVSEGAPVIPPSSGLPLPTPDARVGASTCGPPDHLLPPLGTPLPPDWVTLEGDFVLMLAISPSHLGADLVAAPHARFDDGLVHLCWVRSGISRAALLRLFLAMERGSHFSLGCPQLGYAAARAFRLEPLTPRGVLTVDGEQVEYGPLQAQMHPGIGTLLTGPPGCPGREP

residual activity ([1]; compound 0.01 µM): 103%
residual activity ([1]; compound 0.1 µM): 104%
residual activity ([1]; compound 1.0 µM): 100%
residual activity ([2]; compound 0.01 µM): 103%
residual activity ([2]; compound 0.1 µM): 111%
residual activity ([2]; compound 1.0 µM): 98%
residual activity ([3]; compound 0.01 µM): 92%
residual activity ([3]; compound 0.1 µM): 108%
residual activity ([3]; compound 1.0 µM): 99%
residual activity ([4]; compound 0.01 µM): 113%
residual activity ([4]; compound 0.1 µM): 114%
residual activity ([4]; compound 1.0 µM): 109%
residual activity ([5]; compound 0.01 µM): 104%
residual activity ([5]; compound 0.1 µM): 124%
residual activity ([5]; compound 1.0 µM): 100%
residual activity ([6]; compound 0.01 µM): 97%
residual activity ([6]; compound 0.1 µM): 101%
residual activity ([6]; compound 1.0 µM): 94%
residual activity ([7]; compound 0.01 µM): 113%
residual activity ([7]; compound 0.1 µM): 129%
residual activity ([7]; compound 1.0 µM): 109%
residual activity ([8]; compound 0.01 µM): 117%
residual activity ([8]; compound 0.1 µM): 126%
residual activity ([8]; compound 1.0 µM): 120%
residual activity ([9]; compound 0.01 µM): 112%
residual activity ([9]; compound 0.1 µM): 108%
residual activity ([9]; compound 1.0 µM): 119%
residual activity ([10]; compound 0.01 µM): 81%
residual activity ([10]; compound 0.1 µM): 92%
residual activity ([10]; compound 1.0 µM): 76%
residual activity ([11]; compound 0.01 µM): 106%
residual activity ([11]; compound 0.1 µM): 106%
residual activity ([11]; compound 1.0 µM): 100%
residual activity ([12]; compound 0.01 µM): 117%
residual activity ([12]; compound 0.1 µM): 111%
residual activity ([12]; compound 1.0 µM): 99%
residual activity ([13]; compound 0.01 µM): 110%
residual activity ([13]; compound 0.1 µM): 95%
residual activity ([13]; compound 1.0 µM): 57%
residual activity ([14]; compound 0.01 µM): 109%
residual activity ([14]; compound 0.1 µM): 112%
residual activity ([14]; compound 1.0 µM): 106%
residual activity ([15]; compound 0.1 µM): 99%
residual activity ([15]; compound 1.0 µM): 100%
residual activity ([15]; compound 10.0 µM): 93%
residual activity ([16]; compound 0.1 µM): 96%
residual activity ([16]; compound 1.0 µM): 102%
residual activity ([16]; compound 10.0 µM): 89%
residual activity ([17]; compound 0.1 µM): 103%
residual activity ([17]; compound 1.0 µM): 100%
residual activity ([17]; compound 10.0 µM): 91%
residual activity ([18]; compound 0.1 µM): 99%
residual activity ([18]; compound 1.0 µM): 100%
residual activity ([18]; compound 10.0 µM): 101%
residual activity ([19]; compound 0.1 µM): 100%
residual activity ([19]; compound 1.0 µM): 94%
residual activity ([19]; compound 10.0 µM): 103%
residual activity ([20]; compound 0.1 µM): 102%
residual activity ([20]; compound 1.0 µM): 97%
residual activity ([20]; compound 10.0 µM): 86%
residual activity ([21]; compound 0.1 µM): 99%
residual activity ([21]; compound 1.0 µM): 89%
residual activity ([21]; compound 10.0 µM): 97%
residual activity ([22]; compound 0.1 µM): 102%
residual activity ([22]; compound 1.0 µM): 94%
residual activity ([22]; compound 10.0 µM): 101%
residual activity ([23]; compound 0.1 µM): 106%
residual activity ([23]; compound 1.0 µM): 105%
residual activity ([23]; compound 10.0 µM): 104%
residual activity ([24]; compound 0.1 µM): 119%
residual activity ([24]; compound 1.0 µM): 104%
residual activity ([24]; compound 10.0 µM): 73%
residual activity ([25]; compound 0.1 µM): 106%
residual activity ([25]; compound 1.0 µM): 102%
residual activity ([25]; compound 10.0 µM): 94%
residual activity ([26]; compound 0.1 µM): 102%
residual activity ([26]; compound 1.0 µM): 108%
residual activity ([26]; compound 10.0 µM): 97%
residual activity ([27]; compound 0.1 µM): 110%
residual activity ([27]; compound 1.0 µM): 86%
residual activity ([27]; compound 10.0 µM): 101%
residual activity ([28]; compound 0.1 µM): 98%
residual activity ([28]; compound 1.0 µM): 83%
residual activity ([28]; compound 10.0 µM): 70%
residual activity ([29]; compound 0.1 µM): 113%
residual activity ([29]; compound 1.0 µM): 95%
residual activity ([29]; compound 10.0 µM): 87%
Structure (SMILES): CNc1nc(-c2ccc3c(N)n[nH]c3c2)cc(N2C[C@@H](C(=O)NC3CCCCC3)CC[C@H]2C)n1
